pEC50: −log10 of the molar value.
Molecular target: RheoSwitch® (CHO-K1_RS-1 cells, firefly Luciferase reporter) (Choristoneura fumiferana, UniProt O77240)
Assay: in vitro gene switch assay (fLUC Luciferase expression, potency screen)
Type: cell-based
Conditions: read-out: fLUC assay EC50, 24 hours with compound, 25 μM to 2.5 pM, figure in parentheses after a value not defined
Excerpt: Gene switch assays are disclosed, e.g., in U.S. Pat. Nos. 8,076,517; 7,456,315; 7,304,161; and 6,258,603.
CHO-K1 cells were stably transfected with a plasmid (RS-1, FIG. 1) coding for firefly Luciferase (fLUC) under the control of the RheoSwitch® resulting in the stable cell line CHO-K1_RS-1. A master cell bank was created containing approximately 100 vials at 5×10^6 cells per vial. One vial of CHO-K1_RS-1 was thawed and cultured for two weeks prior to each in vitro potency screening.
Twenty-four (24) hours prior to treatment with the control and test compounds the CHO-K1_RS-1 cells were seeded into white-opaque 384-well cell culture plates at 3,600 cells per well in 30 μl of culture medium. The cells were incubated in a humidified CO2 incubator at 37° C. until compound treatment.
Compounds were prepared at 25 mM in 100% dry DMSO and stored at room temperature in sealed 1 ml tubes prior to subsequent dilution and assay. On the day of cell treatment the tubes containing the control and test compounds were sorted and the ligands transferred to a 96-well polypropylene plate for subsequent dilution. The compounds were diluted in 100% dry DMSO in an 8-point, 10-fold dilution series ranging from 25 mM to 2.5 nM using the Biomek FX automated liquid handler.
The diluted compounds were then transferred to each well of 384-well polypropylene plate in quadruplicate resulting in a single 384-well plate with four replicates of each compound dilution in a different quadrant of the plate. Each well on the 384-well plate received 20 μl of diluted compound. The 384-well plates containing diluted compound and the plates containing cells in culture were loaded onto the Biomek FX and 30 nl of compound was delivered to each well containing cells using a 384-pin V&P Scientific Pin Tool. The resulting 1000-fold dilution (30 nl to 30 μl) generated a final dosing range of 25 μM to 2.5 pM in 0.1% DMSO. Two replicate plates were produced to supply a dedicated plate for the Luciferase expression assay and the APH cell viability assay.
The cells were incubated with the compound for 24 hours in a humidified CO2 incubator at 37° C. Following incubation, the cells were assayed for Luciferase expression (fLUC assay) using the Steady Glo assay from Promega. Cells were equilibrated to room temperature for 15 minutes prior to reagent addition. Thirty micro liters (30 μl) of assay reagent was added to each well of the 384-well plate using the Biomek FX. The reagent was incubated with the cells for 10-120 minutes prior to reading on a Molecular Devices Spectramax L luminometer. The assay reagents were prepared as per the manufacturer's instructions.
The Luciferase expression data was normalized to the baseline signal from cells treated with DMSO alone. The ratio of signal from treated cells to vehicle-treated cells was plotted and non-linear regress was performed using Graph Pad Prism software. EC50, (log)EC50 and Hill slope data was generated. Reporter gene expression, e.g., luciferase expression, serves as a proxy for the expression of a gene of interest. See, e.g., US 2009/0123441 and WO 2011/119773.

RheoSwitch® (CHO-K1_RS-1 cells, firefly Luciferase reporter), sequence (O77240 1-513): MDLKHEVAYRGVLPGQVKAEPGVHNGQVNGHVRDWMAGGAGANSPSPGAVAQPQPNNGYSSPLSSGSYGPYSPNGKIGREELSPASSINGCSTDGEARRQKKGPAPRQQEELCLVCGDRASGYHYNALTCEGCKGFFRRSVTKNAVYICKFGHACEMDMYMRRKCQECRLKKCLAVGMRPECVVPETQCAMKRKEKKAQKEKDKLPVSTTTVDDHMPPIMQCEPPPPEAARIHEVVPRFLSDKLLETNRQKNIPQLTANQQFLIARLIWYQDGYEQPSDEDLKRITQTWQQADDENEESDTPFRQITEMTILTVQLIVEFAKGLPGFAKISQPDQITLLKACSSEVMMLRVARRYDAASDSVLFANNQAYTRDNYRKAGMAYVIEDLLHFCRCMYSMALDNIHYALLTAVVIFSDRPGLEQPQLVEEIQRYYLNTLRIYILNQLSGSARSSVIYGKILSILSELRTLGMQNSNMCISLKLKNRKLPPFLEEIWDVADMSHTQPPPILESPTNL

Point of comparison: CCC[C@@H](N(NC(=O)c1ccc(CCCB(O)O)c(OC(F)F)c1C)C(=O)c1cc(C)cc(C)c1)C(C)(C)C [Cpd. No. 28], pEC50 7.24. Against it:
- CCC(N(NC(=O)c1ccc2c(c1)B(O)OC2)C(=O)c1cc(C)cc(C)c1)C(C)(C)C (racemic) [Cpd. No. 51] — 0.88 log units lower, 6.36
- CCC(CF)N(NC(=O)c1ccc2c(c1C)OCCOB2O)C(=O)c1cc(C)cc(C)c1 (racemic) [Cpd. No. 82] — 1.66 log units lower, 5.58
- Cc1cc(C)cc(C(=O)N(NC(=O)c2ccc3c(c2C)OCCOB3O)C(c2ccccc2)C(C)(C)C)c1 (racemic) [Cpd. No. 83, N′-(2,2-dimethyl-1-phenylpropyl)-N′-(3,5-dimethylbenzoyl)-1-hydroxy-6-methyl-3,4-dihydro-1H-benzo[c][1,5,2]dioxaborepine-7-carbohydrazide] — within 0.2 log units, 7.18
- CCC(c1ccccc1)N(NC(=O)c1ccc(B(O)O)cc1F)C(=O)c1cc(C)cc(C)c1 (racemic) [compound 18] — 0.55 log units lower, 6.69
- CCC(c1ccccc1)N(NC(=O)c1ccc(B(O)O)cc1F)C(=O)c1cc(C)cc(C)c1 (racemic) [compound 19] — 0.65 log units lower, 6.59
- CCC(N(NC(=O)c1cccc(OC)c1C)C(=O)c1cccc(B(O)O)c1)C(C)(C)C (racemic) [compound 32] — 1.70 log units lower, 5.54
- CCC(N(NC(=O)c1cccc(OC)c1C)C(=O)c1cc(F)cc(B(O)O)c1)C(C)(C)C (racemic) [compound 35] — 1.65 log units lower, 5.59
- CCC(N(NC(=O)c1cccc(OC)c1C)C(=O)c1cc(B(O)O)cc([N+](=O)[O-])c1)C(C)(C)C (racemic) [compound 36] — lower, < 4.60
- CCC(N(NC(=O)c1cccc(OC)c1C)C(=O)c1cc(OC)cc(B(O)O)c1)C(C)(C)C (racemic) [compound 37] — 1.56 log units lower, 5.68
- CCCC(N(NC(=O)c1cccc(B2OC(C)(C)C(C)(C)O2)c1C)C(=O)c1cccc(B2OC(C)(C)C(C)(C)O2)c1C)C(C)(C)C (racemic) [compound 41] — 2.39 log units lower, ~4.85
- CCCC(N(NC(=O)c1cccc(B2OC(C)(C)C(C)(C)O2)c1C)C(=O)c1cc(C)cc(C)c1)C(C)(C)C (racemic) [compound 44] — 0.64 log units lower, 6.60
- CCC(N(NC(=O)c1cccc(B2OC(C)(C)C(C)(C)O2)c1C)C(=O)c1cc(OC)c(C)c(OC)c1)C(C)(C)C (racemic) [compound 47] — 1.45 log units lower, 5.79
- CCCC(N(NC(=O)c1cccc(B2OC(C)(C)C(C)(C)O2)c1C)C(=O)c1cc(OC)ccc1OC)C(C)(C)C (racemic) [compound 48] — 2.59 log units lower, 4.65
- Cc1cc(C)cc(C(=O)N(NC(=O)c2cccc(B(O)O)c2Cl)C(C)(C)C)c1 [Cpd. No. 3] — 1.46 log units lower, 5.78
- CCC[C@@H](N(NC(=O)c1cccc(B(O)O)c1F)C(=O)c1cc(C)cc(C)c1)C(C)(C)C [Cpd. No. 6] — 0.21 log units lower, 7.03
- Cc1cc(C)cc(C(=O)N(NC(=O)c2ccc(B(O)O)cc2)C(C)(C)C)c1 [Cpd. No. 7] — 1.24 log units lower, 6.00
- CCC[C@@H](N(NC(=O)c1ccc(B(O)O)cc1)C(=O)c1cc(C)cc(C)c1)C(C)(C)C [Cpd. No. 8] — 0.25 log units lower, 6.99
- Cc1cc(C)cc(C(=O)N(NC(=O)c2ccc(B(O)O)c(F)c2)C(C)(C)C)c1 [Cpd. No. 23, (4-(2-(tert-butyl)-2-(3,5-dimethylbenzoyl) hydrazinecarbonyl)-2-fluorophenyl)boronic acid] — 1.49 log units lower, 5.75
- CCC[C@@H](N(NC(=O)c1c(F)cc(B(O)O)cc1F)C(=O)c1cc(C)cc(C)c1)C(C)(C)C [Cpd. No. 24, (R)-(4-(2-(3,5-dimethylbenzoyl)-2-(2,2-dimethylhexan-3-yl)hydrazinecarbonyl)-3,5-difluorophenyl)boronic acid] — within 0.2 log units, 7.07
- Cc1cc(C)cc(C(=O)N(NC(=O)c2c(F)cc(B(O)O)cc2F)C(C)(C)C)c1 [Cpd. No. 25, (4-(2-(tert-butyl)-2-(3,5-dimethylbenzoyl) hydrazinecarbonyl)-3,5-difluorophenyl)boronic acid] — 1.14 log units lower, 6.10
- CC[C@@H](N(NC(=O)c1ccc(B(O)O)c(OCCOC)c1C)C(=O)c1cc(C)cc(C)c1)C(C)(C)C [Cpd. No. 26, (R)-(4-(2-(3,5-dimethylbenzoyl)-2-(2,2-dimethylpentan-3-yl)hydrazinecarbonyl)-2-(2-methoxyethoxy)-3-methylphenyl)boronic acid] — 1.46 log units lower, 5.78
- CCC[C@@H](N(NC(=O)c1ccc(CCCB(O)O)c(OC)c1C)C(=O)c1cc(C)cc(C)c1)C(C)(C)C [Cpd. No. 27, (R)-(3-(4-(2-(3,5-dimethylbenzoyl)-2-(2,2-dimethylhexan-3-yl)hydrazinecarbonyl)-2-methoxy-3-methyl-phenyl)propyl)boronic acid] — 0.67 log units lower, 6.57
- CC[C@@H](N(NC(=O)c1cccc(OC)c1C)C(=O)c1cc(C)cc(B(O)O)c1)C(C)(C)C [Cpd. No. 33, (R)-(3-(1-(2,2-dimethylpentan-3-yl)-2-(3-methoxy-2-methylbenzoyl)hydrazinecarbonyl)-5-methylphenyl)boronic acid] — 0.52 log units lower, 6.72
- CCCCB1OCc2ccc(C(=O)NN(C(=O)c3ccccc3)C(C)(C)C)c(F)c21 [Cpd. No. 64, N′-benzoyl-N′-(tert-butyl)-1-butyl-7-fluoro-1,3-dihydrobenzo[c][1,2]oxaborole-6-carbohydrazide] — lower, < 4.60
- Cc1cc(C)cc(C(=O)N(NC(=O)c2ccc3c(c2F)COB3O)C(C)(C)C)c1 [Cpd. No. 65, N′-(tert-butyl)-N′-(3,5-dimethylbenzoyl)-4-fluoro-1-hydroxy-1,3-dihydrobenzo[c][1,2]oxaborole-5-carbohydrazide] — 1.74 log units lower, 5.50
- [2H]C([2H])([2H])c1cc(C(=O)N(NC(=O)c2ccc3c(c2F)COB3O)C(C)(C)C)cc(C([2H])([2H])[2H])c1 [Cpd. No. 66, N′-(3,5-bis(methyl-d3)benzoyl)-N′-(tert-butyl)-4-fluoro-1-hydroxy-1,3-dihydrobenzo[c][1,2]oxaborole-5-carbohydrazide] — 1.75 log units lower, 5.49
- Cc1cc(C)cc(C(=O)N(NC(=O)c2ccc3c(c2C)OB(O)CCC3)C(C)(C)C)c1 [Cpd. No. 69] — 0.55 log units lower, 6.69
- CCC[C@@H](N(NC(=O)c1ccc2c(c1C)OB(O)CCC2)C(=O)c1cc(C)cc(C)c1)C(C)(C)C [Cpd. No. 70, (R)—N′-(3,5-dimethylbenzoyl)-N′-(2,2-dimethylhexan-3-yl)-2-hydroxy-9-methyl-2,3,4,5-tetrahydrobenzo[f][1,2]oxaborepine-8-carbohydrazide] — within 0.2 log units, 7.39

Same assay, conditions: read-out: fLUC assay EC50 Run 1, 24 hours with compound, Run 1

Point of comparison: Cc1cc(C)cc(C(=O)N(NC(=O)c2ccc3c(c2F)COB3O)C(c2ccccc2)C(C)(C)C)c1 (stereo not drawn) [Cpd. No. 89, N′-(2,2-dimethyl-1-phenylpropyl)-N′-(3,5-dimethylbenzoyl)-4-fluoro-1-hydroxy-1,3-dihydrobenzo[c][1,2]oxaborole-5-carbohydrazide], pEC50 ~6.44. Against it:
- CC[C@@H](N(NC(=O)c1ccc(B(O)O)cc1F)C(=O)c1cc(C)cc(C)c1)C(C)(C)C [Cpd. No. 85, (R)-(4-(2-(3,5-dimethylbenzoyl)-2-(2,2-dimethylpentan-3-yl)hydrazine-1-carbonyl)-3-fluorophenyl)boronic acid] — 0.72 log units higher, 7.16
- CC[C@@H](N(NC(=O)c1ccc(COC)c(B(O)O)c1F)C(=O)c1cc(C)cc(C)c1)C(C)(C)C [Cpd. No. 86, (R)-(3-(2-(3,5-dimethylbenzoyl)-2-(2,2-dimethylpentan-3-yl)hydrazine-1-carbonyl)-2-fluoro-6-(methoxymethyl)phenyl)boronic acid] — 0.87 log units higher, 7.31
- CC[C@@H](N(NC(=O)c1ccc(COC)c(B2OC(C)(C)C(C)(C)O2)c1F)C(=O)c1cc(C)cc(C)c1)C(C)(C)C [Cpd. No. 87, (R)-N′-(3,5-dimethylbenzoyl)-N′-(2,2 dimethylpentan-3-yl)-2-fluoro-4-(methoxymethyl)-3-(4,4,5,5-tetramethyl-1,3,2-dioxaborolan-2-yl)benzohydrazide] — 0.88 log units higher, 7.32
- COCc1ccc(C(=O)NN(C(=O)c2cc(C)cc(C)c2)C(C)(C)C)c(F)c1B(O)O [Cpd. No. 88, (3-(2-(tert-butyl)-2-(3,5-dimethylbenzoyl)hydrazine-1-carbonyl)-2-fluoro-6-(methoxymethyl)phenyl)boronic acid] — 0.26 log units lower, 6.18

Same assay, conditions: read-out: fLUC assay EC50 Run 2, 24 hours with compound, Run 2

Point of comparison: CC[C@@H](N(NC(=O)c1ccc(B(O)O)cc1F)C(=O)c1cc(C)cc(C)c1)C(C)(C)C [Cpd. No. 85, (R)-(4-(2-(3,5-dimethylbenzoyl)-2-(2,2-dimethylpentan-3-yl)hydrazine-1-carbonyl)-3-fluorophenyl)boronic acid], pEC50 7.18. Against it:
- CC[C@@H](N(NC(=O)c1ccc(COC)c(B(O)O)c1F)C(=O)c1cc(C)cc(C)c1)C(C)(C)C [Cpd. No. 86, (R)-(3-(2-(3,5-dimethylbenzoyl)-2-(2,2-dimethylpentan-3-yl)hydrazine-1-carbonyl)-2-fluoro-6-(methoxymethyl)phenyl)boronic acid] — within 0.2 log units, 7.13
- CC[C@@H](N(NC(=O)c1ccc(COC)c(B2OC(C)(C)C(C)(C)O2)c1F)C(=O)c1cc(C)cc(C)c1)C(C)(C)C [Cpd. No. 87, (R)-N′-(3,5-dimethylbenzoyl)-N′-(2,2 dimethylpentan-3-yl)-2-fluoro-4-(methoxymethyl)-3-(4,4,5,5-tetramethyl-1,3,2-dioxaborolan-2-yl)benzohydrazide] — within 0.2 log units, 7.02
- COCc1ccc(C(=O)NN(C(=O)c2cc(C)cc(C)c2)C(C)(C)C)c(F)c1B(O)O [Cpd. No. 88, (3-(2-(tert-butyl)-2-(3,5-dimethylbenzoyl)hydrazine-1-carbonyl)-2-fluoro-6-(methoxymethyl)phenyl)boronic acid] — 1.10 log units lower, 6.08
- Cc1cc(C)cc(C(=O)N(NC(=O)c2ccc3c(c2F)COB3O)C(c2ccccc2)C(C)(C)C)c1 (stereo not drawn) [Cpd. No. 89, N′-(2,2-dimethyl-1-phenylpropyl)-N′-(3,5-dimethylbenzoyl)-4-fluoro-1-hydroxy-1,3-dihydrobenzo[c][1,2]oxaborole-5-carbohydrazide] — 0.66 log units lower, ~6.52
